Results on 6 compounds are retold here after PMC11313788, “A Series of Novel 1-H-isoindole-1,3(2H)-dione Derivatives as Acetylcholinesterase and Butyrylcholinesterase Inhibitors: In Silico, Synthesis and In Vitro Studies” (Molecules, 2024).

By IC50 is commonly meant the concentration that inhibits the measured activity by half.

Assay [1] has as its target T1, acetylcholinesterase (AChE) from electrophorus electricus (Electrophorus electricus, UniProt O42275).
T1 construct: purchased Sigma-Aldrich
Put plainly: biochemical. Conditions: for IC50: Ellman's method, 96-well plate, enzyme with compound incubated 20 min at 37 °C, phosphate buffer pH 8.0, three measurements; for Selectivity AChE: ratio of the IC50 values (BuChE/AChE), definition not given. The format is biochemical. On the procedure:
(§1) To determine the inhibitory properties of the tested compounds against acetylcholinesterase and butyrylcholinesterase, Ellman’s method was used. […] For each system, measurements were carried out three times. Dose–response curve functions were fitted to the obtained results.
(§2) The following reagents were used to evaluate the inhibiting activity: acetylcholinesterase (AChE) from electrophorus electricus (Sigma-Aldrich, Saint Louis, MO, USA), butyrylcholinesterase (BuChE) from horse serum, acetylthiocholine iodide (Sigma-Aldrich, Saint Louis, MO, USA), butyrylthiocholine iodide (Sigma-Aldrich, Saint Louis, MO, USA), 5,5′-Dithiobis-(2-nitrobenzoic acid) (DTNB, Sigma-Aldrich, Saint Louis, MO, USA). The enzymes were prepared by dissolving in phosphate buffer, pH = 8.0) with the final concentration 2 U/mL for AChE and 4 U/mL for BuChE. The stock solutions of acetylthiocholine iodide (10^−3 mol/dm^3), butyrylthiocholine iodide (10^−3 mol/dm^3) and DTNB (10^−3 mol/dm^3) were prepared in phosphate buffer. The inhibitory activity of derivatives was evaluated by Ellman’s colorimetric method in a 96-well plate. First, the enzyme solution with the tested compound was incubated for 20 min at 37 °C. Next, acetylthiocholine iodide or butyrylthiocholine iodide and DTNB were added.
On the technique in general: DTNB colorimetry detects thiols as they appear.

The target of assay [2] is T2, butyrylcholinesterase (BuChE) from horse serum (Equus caballus, UniProt P81908).
T2 construct: butyrylcholinesterase (BuChE) from horse serum; from tissue; host or cells: horse serum
Put plainly: biochemical. The settings on record: for IC50: Ellman's method, 96-well plate, enzyme with compound incubated 20 min at 37 °C, phosphate buffer pH 8.0, three measurements; for Selectivity BuChE: ratio of the IC50 values (AChE/BuChE), definition not given. On the procedure:
as §1, §2

T1 sequence (O42275 24-633): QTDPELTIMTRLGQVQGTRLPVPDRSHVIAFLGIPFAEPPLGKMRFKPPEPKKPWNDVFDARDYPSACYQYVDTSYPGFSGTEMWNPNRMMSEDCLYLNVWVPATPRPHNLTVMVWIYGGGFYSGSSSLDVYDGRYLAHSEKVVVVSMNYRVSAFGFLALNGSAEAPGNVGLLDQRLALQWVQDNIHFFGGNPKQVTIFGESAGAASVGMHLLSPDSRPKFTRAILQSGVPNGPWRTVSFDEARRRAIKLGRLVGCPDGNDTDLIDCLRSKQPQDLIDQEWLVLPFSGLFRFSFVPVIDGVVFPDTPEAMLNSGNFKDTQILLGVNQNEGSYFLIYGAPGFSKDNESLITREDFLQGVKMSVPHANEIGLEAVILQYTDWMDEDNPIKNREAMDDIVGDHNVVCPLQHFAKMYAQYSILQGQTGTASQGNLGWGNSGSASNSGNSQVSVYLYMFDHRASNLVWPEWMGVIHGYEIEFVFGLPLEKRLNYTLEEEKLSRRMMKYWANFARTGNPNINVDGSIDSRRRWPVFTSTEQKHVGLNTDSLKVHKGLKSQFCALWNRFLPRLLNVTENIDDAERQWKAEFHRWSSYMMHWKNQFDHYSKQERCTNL
T2 sequence (P81908 whole entry): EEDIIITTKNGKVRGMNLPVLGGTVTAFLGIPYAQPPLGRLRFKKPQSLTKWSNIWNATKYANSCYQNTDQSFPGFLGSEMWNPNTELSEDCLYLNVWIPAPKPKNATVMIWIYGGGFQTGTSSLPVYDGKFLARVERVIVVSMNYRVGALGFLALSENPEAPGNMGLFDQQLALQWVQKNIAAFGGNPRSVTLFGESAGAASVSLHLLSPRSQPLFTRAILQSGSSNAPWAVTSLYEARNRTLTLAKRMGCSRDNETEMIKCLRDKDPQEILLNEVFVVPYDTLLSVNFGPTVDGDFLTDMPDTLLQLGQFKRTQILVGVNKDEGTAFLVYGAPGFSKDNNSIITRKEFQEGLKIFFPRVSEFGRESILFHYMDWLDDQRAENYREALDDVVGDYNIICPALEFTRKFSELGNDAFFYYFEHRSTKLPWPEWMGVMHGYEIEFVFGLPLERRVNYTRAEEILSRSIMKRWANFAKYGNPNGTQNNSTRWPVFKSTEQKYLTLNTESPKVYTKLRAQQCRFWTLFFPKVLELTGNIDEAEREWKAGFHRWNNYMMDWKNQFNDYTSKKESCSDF

With `O=C1c2ccccc2C(=O)N1CCN1CCN(c2ccccc2)CC1` [Compound I, N-[2-(4-phenyl-1-piperazinyl)ethyl]-1H-isoindole-1,3(2H)-dione], in assay [1], the IC50 turned out to be 1.12 ± 0.3 µM and the “Selectivity AChE” value is on record as 22.02. In assay [2], the IC50 turned out to be 24.7 ± 1.74 µM and the “Selectivity BuChE” value was determined as 0.05.
Regarding `O=C1c2ccccc2C(=O)N1CCN1CCOCC1` [Compound V, N-(2-morpholine)ethyl-1H-isoindole-1,3(2H)-dione], the IC50 in assay [1] was 16.2 ± 2.37 µM; in assay [2], over 1000 µM.
With `O=C1c2ccccc2C(=O)N1CCN1CCc2ccccc2C1` [Compound VI], in assay [1], the IC50 is 1.14 ± 0.17 µM and the “Selectivity AChE” value was found to be 45.71. In assay [2], the half-inhibitory concentration (IC50) came out at 52.1 ± 9.73 µM and the “Selectivity BuChE” value is 0.02.
For `O=C1c2ccccc2C(=O)N1CCN1CCN(c2ccc(C(F)(F)F)cc2)CC1` [II, N-{2-[4-(4-trifluoromethylphenyl)-1-piperazinyl]ethyl}-1H-isoindole-1,3(2H)-dione] the same measures were 2.31 ± 0.36 µM, 10.70, 24.7 ± 3.78 µM and 0.09.
For `O=C1c2ccccc2C(=O)N1CCN1CCN(C(c2ccccc2)c2ccccc2)CC1` [III, N-{2-[4-(4-diphenylomethylo)-1-piperazinyl]ethyl}-1H-isoindole-1,3(2H)-dione] the same measures were 1.94 ± 0.43 µM, 10.95, 21.2 ± 4.84 µM and 0.09.
Consider `O=C1c2ccccc2C(=O)N1CCN1CCN(c2ncccn2)CC1` [IV], for which, in assay [1], the IC50 is 3.9 ± 0.43 µM and the “Selectivity AChE” value was 17.66. Besides, the “AChE inhibitory activity compared to derivative I” value in assay [1] (compared to the derivative with a benzene ring (I)) is “about four-times less activity”. Also, in assay [2], the half-maximal inhibitory concentration (IC50) is 68.9 ± 7.82 µM and the “Selectivity BuChE” value worked out at 0.06.
